Residues, ends and D or L forms follow the SMILES beside them.
Target: T1, soluble ectodomain of sortilin-6his (Homo sapiens, UniProt Q99523, V650M)
T1 construct: the soluble ectodomain of sortilin-6his is measured by microscale thermophoresis (MST)
Assay: MST binding to soluble ectodomain of sortilin-6his
Conditions: Table 3; monofunctional peptides; MST; read-out: KD score, binding to sortilin (Kd)
Method: At this point the plate was sealed with adhesive strip and placed on an Eppendorf thermomixer to shake at 600 rpm for 3 min before spinning on a Fisherbrand plate-spinner for 15 seconds and further incubation 1 hrs at 19° C. MST was measured on a Monolith NT. Automated (Nanotemper) in standard-treated capillaries at 5% LED-power and high MST-power. Dose-response was extracted from the raw thermographs at 20 sec hot-time and the dissociation constant was estimated by sigmoidal curve fitting in MO. Affinity analysis program (Nanotemper). All experiments were run in duplicates.

Row | SMILES | Kd
1 | CC(C)C[C@H](NC(=O)[C@H](CC(C)C)NC(=O)[C@H](CCC(N)=O)NC(=O)[C@@H](N)CCCNC(=N)N)C(=O)O [compound 22, RQLL-OH] (H-RQLL-OH) | 25 to 250 nM
2 | CC(C)C[C@H](NC(=O)[C@H](CC(C)C)NC(=O)[C@H](CCC(N)=O)NC(=O)[C@@H](N)Cc1ccccc1)C(=O)O [compound 23, FQLL-OH] (H-FQLL-OH) | 25 to 250 nM
3 | CC(C)C[C@H](NC(=O)[C@H](CC(C)C)NC(=O)[C@H](CCC(N)=O)NC(=O)[C@@H](N)CCCCN)C(=O)O [compound 24] (H-KQLL-OH) | 25 to 250 nM
4 | CC(C)C[C@H](NC(=O)[C@H](CC(C)C)NC(=O)[C@H](CCC(N)=O)NC(=O)[C@@H]1CCCN1)C(=O)O [compound 25] (H-PQLL-OH) | 25 to 250 nM
5 | CC[C@H](C)[C@H](NC(=O)[C@H](Cc1ccc(O)cc1)NC(=O)[C@@H]1CCCN1)C(=O)N[C@@H](CC(C)C)C(=O)O [compound 26] (H-PYIL-OH) | 25 to 250 nM
6 | CC(C)C[C@H](NC(=O)[C@H](CC(C)C)NC(=O)[C@H](Cc1ccc(O)cc1)NC(=O)[C@@H](N)CCCNC(=N)N)C(=O)O [compound 27, RYLL-OH] (H-RYLL-OH) | 25 to 250 nM
7 | CC(C)C[C@H](NC(=O)[C@H](CC(C)C)NC(=O)[C@H](Cc1ccc(O)cc1)NC(=O)[C@@H](N)Cc1ccccc1)C(=O)O [compound 28, FYLL-OH] (H-FYLL-OH) | 25 to 250 nM
8 | CC(C)C[C@H](NC(=O)[C@H](CC(C)C)NC(=O)[C@H](CCC(N)=O)NC(=O)[C@@H](N)Cc1ccc(O)cc1)C(=O)O [compound 29, YQLL-OH] (H-YQLL-OH) | 25 to 250 nM
9 | CC[C@H](C)[C@H](NC(=O)[C@H](Cc1ccc(O)cc1)NC(=O)[C@@H](N)Cc1ccccc1)C(=O)N[C@@H](CC(C)C)C(=O)O [compound 31] (H-FYIL-OH) | 250 to 2500 nM
10 | CC[C@H](C)[C@H](NC(=O)[C@H](Cc1ccc(O)cc1)NC(=O)[C@@H](N)CCCNC(=N)N)C(=O)N[C@@H](CC(C)C)C(=O)O [compound 32] (H-RYIL-OH) | 250 to 2500 nM
11 | CC(C)C[C@H](NC(=O)[C@H](CC(C)C)NC(=O)[C@H](Cc1ccc(O)cc1)NC(=O)[C@@H]1CCCN1)C(=O)O [compound 33] (H-PYLL-OH) | 250 to 2500 nM

Same assay, conditions: Table 4; small molecule bifunctional compounds; MST

Row | SMILES | KD score, binding to sortilin (Kd)
12 | Cc1cc(-c2ccc(C(=O)NCCCCCCCCCCCC(=O)NCC(=O)N3CCN(c4ncc(-c5ccc6c(n5)N(Cc5cccnc5C#N)C(C)(C)C6=O)cn4)C[C@H]3C)cc2)cc(NC(=O)c2ccc(C(F)(F)F)cc2C(=O)O)n1 [BF146, 2-[[4-[4-[[12-[[2-[(2R)-4-[5-[1-[(2-cyano-3-pyridyl)methyl]-2,2-dimethyl-3-oxo-pyrrolo[2,3-b]pyridin-6-yl]pyrimidin-2-yl]-2-methyl-piperazin-1-yl]-2-oxo-ethyl]amino]-12-oxo-dodecyl]carbamoyl]phenyl]-6-methyl-2-pyridyl]carbamoyl]-5-(trifluoromethyl)benzoic acid] | 0

Same assay, conditions: Table 4; small molecule bifunctional compounds; MST; read-out: KD score, binding to sortilin (Kd)

Row | SMILES | Kd
13 | C[C@@H]1CN(c2ncc(-c3ccc4c(n3)N(Cc3cccnc3C#N)C(C)(C)C4=O)cn2)CCN1C(=O)CNC(=O)CCCCCOCCOCCNC(=O)c1cccc(Oc2ccc(C(=O)N[C@@H](CCC(C)(C)C)C(=O)O)cn2)c1 [BF100, (2S)-2-[[6-[3-[2-[2-[6-[[2-[(2R)-4-[5-[1-[(2-cyano-3-pyridyl)methyl]-2,2-dimethyl-3-oxo-pyrrolo[2,3-b]pyridin-6-yl]pyrimidin-2-yl]-2-methyl-piperazin-1-yl]-2-oxo-ethyl]amino]-6-oxo-hexoxy]ethoxy]ethylcarbamoyl]phenoxy]pyridine-3-carbonyl]amino]-5,5-dimethyl-hexanoic acid] | < 1 nM
14 | C[C@@H]1CN(c2ncc(-c3ccc4c(n3)N(Cc3cccnc3C#N)C(C)(C)C4=O)cn2)CCN1C(=O)Cn1cc(COCCOCCOCCOCCOc2cccc(Oc3ccc(C(=O)N[C@@H](CCC(C)(C)C)C(=O)O)cn3)c2)nn1 [BF101, (2S)-2-[[6-[3-[2-[2-[2-[2-[[1-[2-[(2R)-4-[5-[1-[(2-cyano-3-pyridyl)methyl]-2,2-dimethyl-3-oxo-pyrrolo[2,3-b]pyridin-6-yl]pyrimidin-2-yl]-2-methyl-piperazin-1-yl]-2-oxo-ethyl]triazol-4-yl]methoxy]ethoxy]ethoxy]ethoxy]ethoxy]phenoxy]pyridine-3-carbonyl]amino]-5,5-dimethyl-hexanoic acid] | 1 to 10 nM
15 | C[C@@H]1CN(c2ncc(-c3ccc4c(n3)N(Cc3cccnc3C#N)C(C)(C)C4=O)cn2)CCN1C(=O)Cc1cn(CCCCCCCCCn2cc(-c3cccc(Oc4ccc(C(=O)N[C@@H](CCC(C)(C)C)C(=O)O)cn4)c3)nn2)nn1 [BF104, (2S)-2-[[6-[3-[1-[9-[4-[2-[(2R)-4-[5-[1-[(2-cyano-3-pyridyl)methyl]-2,2-dimethyl-3-oxo-pyrrolo[2,3-b]pyridin-6-yl]pyrimidin-2-yl]-2-methyl-piperazin-1-yl]-2-oxo-ethyl]triazol-1-yl]nonyl]triazol-4-yl]phenoxy]pyridine-3-carbonyl]amino]-5,5-dimethyl-hexanoic acid] | < 1 nM
16 | C[C@@H]1CN(c2ncc(-c3ccc4c(n3)N(Cc3cccnc3C#N)C(C)(C)C4=O)cn2)CCN1C(=O)CNC(=O)CCCCCCCCn1cc(CCc2cccc(Oc3ccc(C(=O)N[C@@H](CCC(C)(C)C)C(=O)O)cn3)c2)nn1 [BF108, (2S)-2-[[6-[3-[2-[1-[9-[[2-[(2R)-4-[5-[1-[(2-cyano-3-pyridyl)methyl]-2,2-dimethyl-3-oxo-pyrrolo[2,3-b]pyridin-6-yl]pyrimidin-2-yl]-2-methyl-piperazin-1-yl]-2-oxo-ethyl]amino]-9-oxo-nonyl]triazol-4-yl]ethyl]phenoxy]pyridine-3-carbonyl]amino]-5,5-dimethyl-hexanoic acid] | 1 to 10 nM
17 | C[C@@H]1CN(c2ncc(-c3ccc4c(n3)N(Cc3cccnc3C#N)C(C)(C)C4=O)cn2)CCN1C(=O)Cn1cc(COCCOCCOCC(=O)N2CC(Oc3cccc(Oc4ccc(C(=O)N[C@@H](CCC(C)(C)C)C(=O)O)cn4)c3)C2)nn1 [BF111, (2S)-2-[[6-[3-[1-[2-[2-[2-[[1-[2-[(2R)-4-[5-[1-[(2-cyano-3-pyridyl)methyl]-2,2-dimethyl-3-oxo-pyrrolo[2,3-b]pyridin-6-yl]pyrimidin-2-yl]-2-methyl-piperazin-1-yl]-2-oxo-ethyl]triazol-4-yl]methoxy]ethoxy]ethoxy]acetyl]azetidin-3-yl]oxyphenoxy]pyridine-3-carbonyl]amino]-5,5-dimethyl-hexanoic acid] | < 1 nM
18 | C[C@@H]1CN(c2ncc(-c3ccc4c(n3)N(Cc3cccnc3C#N)C(C)(C)C4=O)cn2)CCN1C(=O)Cn1cc(COCCOCCOCC(=O)N2CCC(Oc3cccc(Oc4ccc(C(=O)N[C@@H](CCC(C)(C)C)C(=O)O)cn4)c3)CC2)nn1 [BF112, (2S)-2-[[6-[3-[[1-[2-[2-[2-[[1-[2-[(2R)-4-[5-[1-[(2-cyano-3-pyridyl)methyl]-2,2-dimethyl-3-oxo-pyrrolo[2,3-b]pyridin-6-yl]pyrimidin-2-yl]-2-methyl-piperazin-1-yl]-2-oxo-ethyl]triazol-4-yl]methoxy]ethoxy]ethoxy]acetyl]-4-piperidyl]oxy]phenoxy]pyridine-3-carbonyl]amino]-5,5-dimethyl-hexanoic acid] | < 1 nM
19 | C[C@@H]1CN(c2ncc(-c3ccc4c(n3)N(Cc3cccnc3C#N)C(C)(C)C4=O)cn2)CCN1C(=O)Cn1cc(COCCOCCN2CCN(CCOCCOc3cccc(Oc4ccc(C(=O)N[C@@H](CCC(C)(C)C)C(=O)O)cn4)c3)CC2)nn1 [BF113, (2S)-2-[[6-[3-[2-[2-[4-[2-[2-[[1-[2-[(2R)-4-[5-[1-[(2-cyano-3-pyridyl)methyl]-2,2-dimethyl-3-oxo-pyrrolo[2,3-b]pyridin-6-yl]pyrimidin-2-yl]-2-methyl-piperazin-1-yl]-2-oxo-ethyl]triazol-4-yl]methoxy]ethoxy]ethyl]piperazin-1-yl]ethoxy]ethoxy]phenoxy]pyridine-3-carbonyl]amino]-5,5-dimethyl-hexanoic acid] | < 1 nM
20 | C[C@@H]1CN(c2ncc(-c3ccc4c(n3)N(Cc3cccnc3C#N)C(C)(C)C4=O)cn2)CCN1C(=O)Cn1cc(COCCOCCOC2CN(CCOCCOc3cccc(Oc4ccc(C(=O)N[C@@H](CCC(C)(C)C)C(=O)O)cn4)c3)C2)nn1 [BF114, (2S)-2-[[6-[3-[2-[2-[3-[2-[2-[[1-[2-[(2R)-4-[5-[1-[(2-cyano-3-pyridyl)methyl]-2,2-dimethyl-3-oxo-pyrrolo[2,3-b]pyridin-6-yl]pyrimidin-2-yl]-2-methyl-piperazin-1-yl]-2-oxo-ethyl]triazol-4-yl]methoxy]ethoxy]ethoxy]azetidin-1-yl]ethoxy]ethoxy]phenoxy]pyridine-3-carbonyl]amino]-5,5-dimethyl-hexanoic acid] | < 1 nM
21 | CC(C)(C)CC[C@H](NC(=O)c1ccc(Oc2cccc(OCC(=O)NCCOCCOCCOCCNc3ncc(-c4ccc5c(n4)N(Cc4cccnc4C#N)C(C)(C)C5=O)cn3)c2)nc1)C(=O)O [BF137, (2S)-2-[[6-[3-[2-[2-[2-[2-[2-[[5-[1-[(2-cyano-3-pyridyl)methyl]-2,2-dimethyl-3-oxo-pyrrolo[2,3-b]pyridin-6-yl]pyrimidin-2-yl]amino]ethoxy]ethoxy]ethoxy]ethylamino]-2-oxo-ethoxy]phenoxy]pyridine-3-carbonyl]amino]-5,5-dimethyl-hexanoic acid] | < 1 nM
22 | CC(C)(C)CC[C@H](NC(=O)c1ccc(Oc2cccc(OCC(=O)NCCOCCOCCOCCOc3ncc(-c4ccc5c(n4)N(Cc4cccnc4C#N)C(C)(C)C5=O)cn3)c2)nc1)C(=O)O [BF139] | 1 to 10 nM
23 | CC(C)(C)CC[C@H](NC(=O)c1ccc(Oc2cccc(OCC(=O)NCCOCCOCCOCCOCCOCCOc3ncc(-c4ccc5c(n4)N(Cc4cccnc4C#N)C(C)(C)C5=O)cn3)c2)nc1)C(=O)O [BF143, (S)-2-(6-(3-((20-((5-(1-((2-cyanopyridin-3-yl)methyl)-2,2-dimethyl-3-oxo-2,3-dihydro-1H-pyrrolo[2,3-b]pyridin-6-yl)pyrimidin-2-yl)oxy)-2-oxo-6,9, 12, 15, 18-pentaoxa-3-azaicosyl)oxy)phenoxy)nicotinamido)-5,5-dimethylhexanoic acid] | 1 to 10 nM

Reference: patent US20250345446A1 (Draupnir Bio ApS, priority 2022, published 2025)
